Data reported in ChEMBL document CHEMBL1201862, “PubChem BioAssay data set” (2004).
The source made the active and inactive calls.

Assays:
[1] = molecular target: T1, Short transient receptor potential channel 4 (Mus musculus, UniProt Q9QUQ5); assay: mouse TRPC4 channel activators, dose response, cell-based, HEK293 TRPC4/mu-opioid, Fluo-4 calcium (AID 434937); type: functional
T1 sequence (Q9QUQ5 whole entry): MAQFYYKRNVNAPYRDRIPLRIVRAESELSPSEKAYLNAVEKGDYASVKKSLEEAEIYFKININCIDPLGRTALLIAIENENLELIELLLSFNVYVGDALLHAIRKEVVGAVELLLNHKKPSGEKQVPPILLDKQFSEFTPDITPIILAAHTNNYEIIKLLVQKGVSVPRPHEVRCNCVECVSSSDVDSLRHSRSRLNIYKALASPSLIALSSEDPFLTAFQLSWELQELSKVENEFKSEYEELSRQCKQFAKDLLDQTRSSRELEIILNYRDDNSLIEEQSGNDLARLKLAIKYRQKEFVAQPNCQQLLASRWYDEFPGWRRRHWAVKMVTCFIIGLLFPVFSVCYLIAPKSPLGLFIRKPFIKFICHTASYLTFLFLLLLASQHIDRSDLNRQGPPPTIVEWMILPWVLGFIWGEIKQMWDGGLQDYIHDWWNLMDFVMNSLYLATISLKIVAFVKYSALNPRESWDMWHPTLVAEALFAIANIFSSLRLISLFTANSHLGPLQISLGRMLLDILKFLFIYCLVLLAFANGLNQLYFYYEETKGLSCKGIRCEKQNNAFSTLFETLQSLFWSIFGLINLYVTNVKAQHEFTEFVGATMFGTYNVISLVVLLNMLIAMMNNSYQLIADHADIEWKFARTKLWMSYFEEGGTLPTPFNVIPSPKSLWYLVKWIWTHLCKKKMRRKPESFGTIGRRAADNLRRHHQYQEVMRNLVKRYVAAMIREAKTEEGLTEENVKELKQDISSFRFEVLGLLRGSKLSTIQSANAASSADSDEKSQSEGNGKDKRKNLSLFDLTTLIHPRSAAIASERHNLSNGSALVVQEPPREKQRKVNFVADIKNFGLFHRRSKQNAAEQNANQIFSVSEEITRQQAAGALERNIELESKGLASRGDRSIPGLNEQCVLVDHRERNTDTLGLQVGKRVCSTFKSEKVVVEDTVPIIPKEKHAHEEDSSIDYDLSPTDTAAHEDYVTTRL

[2] = molecular target: T2, Endoribonuclease toxin MazF (Escherichia coli K-12, UniProt P0AE70); assay: fluorescent RNA oligo signal without MazF, dose response, counter-screen for MazEF activator project, biochemical, fluorescence, single-stranded RNase substrate (AID 588502); type: functional
T2 sequence (P0AE70 whole entry): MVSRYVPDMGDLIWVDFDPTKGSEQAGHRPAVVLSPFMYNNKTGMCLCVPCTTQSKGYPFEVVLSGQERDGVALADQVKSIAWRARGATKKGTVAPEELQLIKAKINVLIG

[3] = molecular target: T3, Zinc finger protein mex-5 (Caenorhabditis elegans, UniProt Q9XUB2); assay: MEX-5/TCR-2 RNA interaction inhibitors, dose response, biochemical, C. elegans, fluorescence polarization (AID 1960)
T3 sequence (Q9XUB2 whole entry): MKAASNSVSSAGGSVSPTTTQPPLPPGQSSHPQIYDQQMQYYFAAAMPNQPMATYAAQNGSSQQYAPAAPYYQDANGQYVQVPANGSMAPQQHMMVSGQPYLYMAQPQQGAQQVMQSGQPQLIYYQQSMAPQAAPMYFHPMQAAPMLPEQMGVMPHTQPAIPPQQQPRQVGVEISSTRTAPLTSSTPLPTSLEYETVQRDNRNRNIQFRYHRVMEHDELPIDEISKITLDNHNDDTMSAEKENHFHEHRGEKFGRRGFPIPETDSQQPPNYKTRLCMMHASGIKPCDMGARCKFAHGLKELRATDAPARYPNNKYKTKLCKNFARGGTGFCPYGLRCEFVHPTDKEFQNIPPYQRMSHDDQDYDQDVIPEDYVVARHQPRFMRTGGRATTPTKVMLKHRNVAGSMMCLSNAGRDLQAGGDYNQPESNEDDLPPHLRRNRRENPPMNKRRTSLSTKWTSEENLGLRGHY

[4] = molecular target: Induced myeloid leukemia cell differentiation protein Mcl-1 (Homo sapiens, UniProt Q07820); type: functional
[5] = molecular target: T2, Endoribonuclease toxin MazF; assay: MazF toxin RNase activators, dose response, biochemical, fluorescence, single-stranded RNA substrate, uHTS hits (AID 588481); type: functional
[6] = molecular target: T4, RNA-binding protein pos-1 (Caenorhabditis elegans, UniProt G5EF15); assay: inhibitors of POS-1/mex-3 RNA binding, dose response, biochemical, fluorescence polarization (AID 1964);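 also: purified POS-1 fused to maltose binding protein made in E. coli; potency of compounds blocking POS-1 binding to fluorescent RNA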
T4 sequence (G5EF15 whole entry): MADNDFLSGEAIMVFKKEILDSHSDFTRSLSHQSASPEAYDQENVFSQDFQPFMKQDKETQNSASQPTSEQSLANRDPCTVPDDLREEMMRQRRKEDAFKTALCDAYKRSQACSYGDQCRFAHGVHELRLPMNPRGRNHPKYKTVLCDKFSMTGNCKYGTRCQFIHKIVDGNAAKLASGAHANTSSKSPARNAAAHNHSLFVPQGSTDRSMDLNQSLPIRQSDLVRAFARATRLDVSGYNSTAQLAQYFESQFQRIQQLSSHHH

Streptokinase A = molecular target: T5, Streptokinase A (Streptococcus pyogenes serotype M1, UniProt P10520); assay: S. pyogenes streptokinase expression inhibitors, potency, dose response, plasminogen activation absorbance, OD405 (AID 1914); type: functional, Streptococcus pyogenes M1 GAS;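 also: secreted streptokinase activity via plasminogen activation per viability signal from cell pellet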
T5 sequence (P10520 whole entry): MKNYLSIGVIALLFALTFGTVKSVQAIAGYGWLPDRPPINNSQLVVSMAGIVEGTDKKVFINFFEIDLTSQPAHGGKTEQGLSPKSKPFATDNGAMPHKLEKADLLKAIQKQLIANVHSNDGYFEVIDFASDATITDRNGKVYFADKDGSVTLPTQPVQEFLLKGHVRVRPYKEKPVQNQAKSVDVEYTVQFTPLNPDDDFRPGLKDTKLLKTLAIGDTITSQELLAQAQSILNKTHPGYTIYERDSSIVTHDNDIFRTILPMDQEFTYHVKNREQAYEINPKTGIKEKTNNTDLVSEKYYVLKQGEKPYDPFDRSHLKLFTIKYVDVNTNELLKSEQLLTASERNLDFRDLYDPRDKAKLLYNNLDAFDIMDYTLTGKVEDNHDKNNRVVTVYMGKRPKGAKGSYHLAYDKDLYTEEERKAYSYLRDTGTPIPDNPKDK

Streptococcus = assay: Group A Streptococcus viability loss, dose response, counter-screen for streptokinase expression inhibitor project, luminescence, BacTiterGlo (AID 1915); type: functional, organism-based;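 also: potency for reduction of bacterial viability or growth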
[7] = tested on: Streptococcus sp. 'group A'; assay: growth inhibition of control SK(-) GAS strain, dose response, counter-screen for streptokinase expression inhibitor project, luminescence, kanamycin, BacTiterGlo, confirmation (AID 1900); type: functional, organism-based
[8] = molecular target: Glucose-6-phosphate 1-dehydrogenase (Homo sapiens, UniProt P11413); assay: human G6PD enzyme inhibitors, dose response, selectivity assay for P. falciparum G6PD inhibitor project, biochemical, fluorescence (AID 504792); type: functional
Genome polyprotein = Genome polyprotein (dengue virus type 2, UniProt P29990); assay: Dengue-2 NS5 methyltransferase inhibitors, primary screen, biochemical, confirmation dose response (AID 588689); type: functional
[9] = ZM109 Env clade C HIV-1 fusion inhibitors, dose response, HeLa effector, CEM target cells, luciferase, cherry-pick (AID 652058); type: functional, cell-based
[10] = molecular target: T6, Ubiquitin-conjugating enzyme E2 N (Homo sapiens, UniProt P61088); type: functional;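 also: Dose-response confirmation in a TR-FRET assay detecting UBC13-driven polyubiquitin chain formation, inhibition measured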
T6 sequence (P61088 whole entry): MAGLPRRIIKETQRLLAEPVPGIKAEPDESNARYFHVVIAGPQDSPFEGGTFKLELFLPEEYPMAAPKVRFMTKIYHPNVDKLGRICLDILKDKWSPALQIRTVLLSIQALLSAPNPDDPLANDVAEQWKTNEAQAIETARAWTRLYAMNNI

[11] = off-target signal loss in HeLa-CEM21 co-culture – HeLa F-luc CTL cells, cherry-picked, counter-screen for HIV-1 Env fusion inhibitor project, dose response (AID 652040); type: functional, cell-based;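 also: potency for signal decrease marking cytotoxic or nonspecific inhibition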
[12] = inhibitors of clade B AD8 Env fusion, dose response, cell-based, cherry-pick (AID 652062); type: functional;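 also: luciferase signal from cell-cell fusion driven by HIV-1 clade B AD8 Env; potency is for inhibitors of fusion seen as a drop in luminescence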
[13] = CEM21 lymphoblast cell cytotoxicity, dose response, cytotoxicity control for viral fusion inhibitor project, CellTiter-Glo luminescence, cherry-picked (AID 652042); type: functional, cell-based;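 also: potency for signal decrease meaning cytotoxicity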
[14] = inhibitors of HIV Env-driven cell fusion, dose response, cherry-pick (AID 652057); type: functional, cell-based
BJ [15] = assay: cytotoxicity toward BJ-TERT fibroblasts, dose response, cell-based, RAS-independent, luminescence (AID 1933); type: functional; settings: Homo sapiens
[16] = molecular target: T7, Microphthalmia-associated transcription factor (Homo sapiens, UniProt O75030); assay: TRPM1 promoter luciferase signal decrease, dose response, MITF inhibitor project, cell-based, SK-MEL-5, cherry-picked, set 3 (AID 493073); type: functional
T7 sequence (O75030 whole entry): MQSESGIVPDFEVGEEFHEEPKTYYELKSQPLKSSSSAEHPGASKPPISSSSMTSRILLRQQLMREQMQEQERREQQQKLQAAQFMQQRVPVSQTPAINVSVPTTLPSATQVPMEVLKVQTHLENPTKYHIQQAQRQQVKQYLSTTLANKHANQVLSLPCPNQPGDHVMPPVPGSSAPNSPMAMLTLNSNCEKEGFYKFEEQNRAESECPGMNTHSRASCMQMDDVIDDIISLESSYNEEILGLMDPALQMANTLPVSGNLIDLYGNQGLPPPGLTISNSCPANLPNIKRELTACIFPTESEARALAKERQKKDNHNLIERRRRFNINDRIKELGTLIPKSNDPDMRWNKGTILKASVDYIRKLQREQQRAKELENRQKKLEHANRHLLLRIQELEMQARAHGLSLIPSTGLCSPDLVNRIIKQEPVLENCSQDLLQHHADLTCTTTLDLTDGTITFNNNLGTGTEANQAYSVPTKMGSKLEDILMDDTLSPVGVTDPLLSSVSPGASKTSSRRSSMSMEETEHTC

[17] = insulin promoter down-regulators in MIN6 cells, imaging, high-content screening, mouse beta cells (AID 1628); type: functional
BJ [18] = assay: cells; type: functional, cell-based; settings: Homo sapiens
[19] = cytotoxicity in MIN6 insulinoma cells, dose response, cytotoxicity control, cell-based, mouse insulinoma (AID 2122); type: functional;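 also: confirmatory high-throughput counterscreen run to flag cytotoxic compounds; mouse MIN-6 beta cells carrying an insulin promoter eGFP reporter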
[20] = cytotoxicity toward DRD oncogenic fibroblasts, dose response, cell-based, non-viral oncogenic, luminescence (AID 1934); type: functional; settings: Homo sapiens
BJ [21] = assay: cytotoxicity toward BJ-TERT-LT-ST fibroblasts, dose response, cell-based, RAS-independent, luminescence (AID 1935); type: functional; settings: Homo sapiens;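 also: BJ fibroblasts immortalized with TERT plus LT and ST oncogenes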
[22] = molecular target: Dual specificity tyrosine-phosphorylation-regulated kinase 1A (Rattus norvegicus, UniProt Q63470); type: biochemical, Homo sapiens

Chain of Glucose-6-phosphate 1-dehydrogenase (P11413 whole entry): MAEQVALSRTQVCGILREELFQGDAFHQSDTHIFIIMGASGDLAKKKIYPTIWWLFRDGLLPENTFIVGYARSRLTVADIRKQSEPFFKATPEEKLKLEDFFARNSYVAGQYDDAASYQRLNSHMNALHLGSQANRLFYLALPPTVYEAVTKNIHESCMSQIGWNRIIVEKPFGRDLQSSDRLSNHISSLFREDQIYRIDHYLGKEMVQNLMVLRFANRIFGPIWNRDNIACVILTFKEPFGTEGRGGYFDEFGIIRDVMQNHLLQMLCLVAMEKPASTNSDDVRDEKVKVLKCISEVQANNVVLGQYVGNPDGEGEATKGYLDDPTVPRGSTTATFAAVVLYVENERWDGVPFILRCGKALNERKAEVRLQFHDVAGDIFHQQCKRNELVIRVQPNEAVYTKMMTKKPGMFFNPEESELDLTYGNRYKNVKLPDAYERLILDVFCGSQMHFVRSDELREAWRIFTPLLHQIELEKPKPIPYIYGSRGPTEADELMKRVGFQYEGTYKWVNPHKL
Chain of Genome polyprotein (P29990 2492-3391 limits assumed): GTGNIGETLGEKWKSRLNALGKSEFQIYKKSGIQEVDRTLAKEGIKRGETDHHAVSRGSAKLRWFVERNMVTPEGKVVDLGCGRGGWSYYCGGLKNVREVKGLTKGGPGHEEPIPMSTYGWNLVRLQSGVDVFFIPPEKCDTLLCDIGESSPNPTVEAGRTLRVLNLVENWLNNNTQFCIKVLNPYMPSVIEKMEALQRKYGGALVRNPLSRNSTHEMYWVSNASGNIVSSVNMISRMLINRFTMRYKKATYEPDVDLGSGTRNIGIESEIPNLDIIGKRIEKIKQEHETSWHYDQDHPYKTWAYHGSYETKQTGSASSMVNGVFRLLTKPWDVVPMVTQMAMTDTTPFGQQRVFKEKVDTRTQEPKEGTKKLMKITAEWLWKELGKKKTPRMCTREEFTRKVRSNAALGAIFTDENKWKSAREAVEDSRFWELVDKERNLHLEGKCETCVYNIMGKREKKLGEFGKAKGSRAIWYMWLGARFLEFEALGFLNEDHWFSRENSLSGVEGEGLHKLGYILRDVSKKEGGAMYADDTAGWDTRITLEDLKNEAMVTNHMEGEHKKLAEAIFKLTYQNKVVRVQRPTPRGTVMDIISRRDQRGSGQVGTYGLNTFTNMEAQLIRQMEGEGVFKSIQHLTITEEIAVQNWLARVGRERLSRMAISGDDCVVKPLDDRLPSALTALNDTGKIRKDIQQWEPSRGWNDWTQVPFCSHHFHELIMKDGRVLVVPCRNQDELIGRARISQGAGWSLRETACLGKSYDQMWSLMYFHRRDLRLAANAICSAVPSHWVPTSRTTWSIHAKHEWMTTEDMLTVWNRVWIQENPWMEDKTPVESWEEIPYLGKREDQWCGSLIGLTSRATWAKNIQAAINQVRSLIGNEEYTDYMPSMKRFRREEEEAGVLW
Chain of Induced myeloid leukemia cell differentiation protein Mcl-1 (Q07820 whole entry): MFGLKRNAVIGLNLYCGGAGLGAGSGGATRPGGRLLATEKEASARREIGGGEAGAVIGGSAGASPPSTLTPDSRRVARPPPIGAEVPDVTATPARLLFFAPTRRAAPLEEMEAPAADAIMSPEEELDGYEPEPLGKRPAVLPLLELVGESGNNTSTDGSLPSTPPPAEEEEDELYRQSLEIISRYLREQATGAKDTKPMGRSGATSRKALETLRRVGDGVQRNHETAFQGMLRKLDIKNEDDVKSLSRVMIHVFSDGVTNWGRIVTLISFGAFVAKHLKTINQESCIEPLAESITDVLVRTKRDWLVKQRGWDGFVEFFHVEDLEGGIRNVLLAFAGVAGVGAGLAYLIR

O=[N+]([O-])c1ccc(N2CCNCC2)c2ncccc12
EC50 [1]: 0.0373 µM (active)

O=C1C(=Cc2cccn2-c2ccccc2)C(=O)c2ccccc21
EC50 [2]: 60.7 µM (inactive)
EC50 [3]: 175 µM (active)
IC50 [4]: 4.55 µM (active)
EC50 [5]: > 99 µM (inactive)
EC50 [6]: 68.6 µM (active)

COc1cc(OC)cc(C(=O)NC(=S)NNC(=O)Cc2cccs2)c1
EC50 (Streptokinase A): > 150 µM (not active)
EC50 [1]: 10.6 µM (active)
EC50 (Streptococcus): 11.6 µM (active)
EC50 [7]: 0.814 µM (active)

COC(=O)C1=C(C)N(C)C(C)=C(C(=O)OC)C1c1ccccn1
EC50 [2]: 56.4 µM (inactive)
EC50 [5]: > 99 µM (inactive)

COC(=O)CCC(=O)OC1(C)C(=O)C2=CN(c3ccccc3)C(c3ccc(OC)cc3)=CC2=C(Br)C1=O (stereo not drawn)
IC50 [8]: 42.1 µM (inactive)
IC50 (Genome polyprotein): > 100 µM (active)

CN(C)C(CNC(=O)c1cccc(S(=O)(=O)N(C)C)c1)c1ccccc1 (stereo not drawn)
EC50 [1]: 0.299 µM (active)

CCC(C)N(CCNC(=O)c1ccc2c(c1)NC(=O)c1ccccc1S2)C1CCCCC1 (stereo not drawn)
IC50 [8]: > 80 µM (inactive)
AC50 [9]: 0.923 µM (active)
IC50 [10]: > 20 µM (inactive)
AC50 [11]: 1.09 µM (active)
AC50 [12]: 3.82 µM (active)
AC50 [13]: 45.1 µM (active)
AC50 [14]: 0.758 µM (active)

Cc1cc(-n2c(C)cc(C(=O)CCl)c2C)no1
EC50 (BJ [15]): 4.75 µM (inconclusive)
AC50 [16]: 5.5 µM (active)
IC50 [17]: 3.25 µM (active)
EC50 (BJ [18]): 2.76 µM (active)
IC50 [19]: 1.66 µM (active)
EC50 [20]: 10.9 µM (inconclusive)
EC50 (BJ [21]): 1.91 µM (inconclusive)

O=C1N=C(N2CCc3ccccc3C2)S/C1=C\c1ccc(O)cc1
AC50 [22]: 0.737 µM (active)

O=C1/C(=C/c2ccc3c(c2)OCO3)Oc2cc(OCC(=O)N3CCC[C@H]3C(=O)O)ccc21
AC50 [22]: 4.59 µM (active)

Cc1sc2nc(-c3ccccn3)nc(O)c2c1-c1ccccc1
IC50 [17]: 4.11 µM (active)
IC50 [19]: 5.43 µM (active)
EC50 (Streptococcus): 23.9 µM (active)
EC50 [7]: 1.25 µM (active)

Cc1ccc(S(=O)(=O)SCCCSS(=O)(=O)c2ccc(C)cc2)cc1
IC50 [8]: 26.7 µM (inactive)

Cc1cc(O)nc(N/N=C/c2cc(C)n(CC(F)(F)F)c2C)n1
IC50 [17]: 2 µM (active)
IC50 [19]: 11.2 µM (inactive)
